Test results reported in PMC6274529, “Flavonoids-Rich Orthosiphon stamineus Extract as New Candidate for Angiotensin I-Converting Enzyme Inhibition: A Molecular Docking Study” (Molecules, 2016).
Where “and” joins values, the source holds several entries; their conditions need not be identical. Identical values can stand only once. Like-named read-outs stand apart in the source and are kept apart here.

Key:
[1] = Chelation of zinc (II) ion by tetramethylmurexide reagent; format: physicochemical; details: hexamine/HCl buffer pH 5.0, mean ± SD
Method: Therefore, this extract was selected to study its chelation ability with zinc (II) ion. […]. Based on this standard curve, the amount of metal ions bound by the compound tested was evaluated. […].
Briefly, 0.01 M hexamine/HCl buffer was prepared at pH 5.0 with addition of 0.01 M KCl. Stock solution of captopril. […] A series of working sample solutions were prepared by diluting the stock solutions with hexamine/HCl buffer (0–5 mg/mL). ZnCl2 was prepared in the same buffer at concentration of 0.8 mM. Then, 1 mL of sample solutions was mixed with 1 mL ZnCl2 solution and 0.1 mL tetramethylmurexide at concentration of 1 mM. Absorbance was recorded at 462 nm and 530 nm and then the ratio of A462/A530 was calculated. Distilled deionized water was used instead of tetramethylmurexide reagent in control samples. A standard curve of absorbance ratio versus metal ions concentrations (0 to 3.2 mM) was prepared and the percentage of bound metal ions was calculated. Percentage of bond with Zn^2+ = 1 − (Concentration of free Zn^2+/Concentration of total Zn^2+) × 100(4)

[2] = molecular target: T1, ACE enzyme (from rabbit lung) (Oryctolagus cuniculus, UniProt P12822); experiment: In vitro ACE inhibition activity (HA formation from HHL, HPLC-UV)
T1 sequence (P12822 34-1310): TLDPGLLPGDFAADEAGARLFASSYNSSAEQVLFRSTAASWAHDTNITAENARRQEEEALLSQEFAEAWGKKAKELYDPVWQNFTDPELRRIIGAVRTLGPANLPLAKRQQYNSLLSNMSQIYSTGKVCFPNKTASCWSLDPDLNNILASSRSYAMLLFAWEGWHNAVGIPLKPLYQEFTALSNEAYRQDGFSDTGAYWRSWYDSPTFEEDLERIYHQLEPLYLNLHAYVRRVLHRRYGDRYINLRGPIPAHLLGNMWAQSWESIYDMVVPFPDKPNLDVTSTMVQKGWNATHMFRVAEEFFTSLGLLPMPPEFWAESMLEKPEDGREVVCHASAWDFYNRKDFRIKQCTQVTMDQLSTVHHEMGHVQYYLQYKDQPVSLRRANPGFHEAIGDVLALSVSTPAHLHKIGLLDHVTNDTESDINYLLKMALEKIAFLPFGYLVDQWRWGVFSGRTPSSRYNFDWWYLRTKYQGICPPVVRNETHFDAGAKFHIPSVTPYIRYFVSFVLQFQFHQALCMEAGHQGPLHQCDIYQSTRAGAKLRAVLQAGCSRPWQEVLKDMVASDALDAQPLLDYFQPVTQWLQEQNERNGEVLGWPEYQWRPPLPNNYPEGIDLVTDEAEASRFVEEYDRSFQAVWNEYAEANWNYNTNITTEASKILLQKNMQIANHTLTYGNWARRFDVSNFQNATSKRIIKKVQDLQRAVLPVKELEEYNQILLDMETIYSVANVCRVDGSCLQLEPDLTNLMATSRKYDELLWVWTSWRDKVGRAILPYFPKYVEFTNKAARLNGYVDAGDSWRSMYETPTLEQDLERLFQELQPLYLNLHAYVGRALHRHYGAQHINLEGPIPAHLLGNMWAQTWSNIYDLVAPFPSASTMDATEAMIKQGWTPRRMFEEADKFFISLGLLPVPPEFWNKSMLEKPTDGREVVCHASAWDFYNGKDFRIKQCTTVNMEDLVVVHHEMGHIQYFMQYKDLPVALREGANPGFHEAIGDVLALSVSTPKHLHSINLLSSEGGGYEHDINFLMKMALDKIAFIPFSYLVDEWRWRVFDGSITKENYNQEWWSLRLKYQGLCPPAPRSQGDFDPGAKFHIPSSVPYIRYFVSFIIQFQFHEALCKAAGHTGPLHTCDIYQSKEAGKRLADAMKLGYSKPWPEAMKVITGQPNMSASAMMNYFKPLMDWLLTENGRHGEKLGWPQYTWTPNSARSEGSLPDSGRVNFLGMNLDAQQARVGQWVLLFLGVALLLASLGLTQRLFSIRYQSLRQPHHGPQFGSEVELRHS
Method: This method relies on determining hippuric acid (HA) formation from ACE-specific substrate hippuryl-histidyl-leucine (HHL) by the action of ACE enzyme, resulting in the removal of C-terminal dipeptide histidylleucine.
The high performance liquid chromatography (HPLC) was performed using an Agilent Technologies (Series 1200 infinity, Frankfurt, Germany) system. Separations were accomplished on a Zorbax Eclipse plus phenyl-hexyl (4.6 mm × 250 mm, 5 µm, Agilent) and the column temperature was maintained at 30 °C. Substrates of HA and HHL were detected at 228 nm. The flow rate was set at 0.6 mL/min and injection volume was 10 μL. The mobile phase consisted of 20% acetonitrile and 80% of 0.1% ammonium dihydrogen phosphate buffer was used in this analysis with 10 min separation time.
For substrate HHL hydrolysis catalyzed by purified rabbit ACE enzyme, the total reaction volume was 200 µL. Phosphate buffer (pH 8.3) was used to dilute the substrate HHL and rabbit lung ACE enzyme. […] The reaction mixtures were incubated for 2 h at 37 °C. The reaction was terminated by heating the samples at 100 °C in water bath, and then 800 µL of water was added to all samples, and they were analyzed by stated HPLC method.
HHL as substrate was prepared freshly in 10 mM phosphate buffer pH 8.3 and then sonicated for 30 min. […] Angiotensin converting enzyme (ACE) was prepared at 0.05 U/mL in phosphate buffer pH 8.3 containing 0.1% bovine serum albumin (BSA). Then, 50 µL of purified ACE enzyme and 20 µL extracts, reference compounds or captopril at different concentrations were added to 130 µL of HHL substrate. Control reaction mixture was contained 20 µL of 50% ethanol instead of extracts. All samples were incubated for 2 h at 37 °C. The reaction was stopped by heating the samples at 100 °C. All samples were analyzed by HPLC after adding 800 µL of water. ACE inhibition rate was calculated by the following equation: ACE inhibition activity of test substances (%) = [(HA concentration levels without test substances) − (HA concentration levels with test substances)/(HA concentration levels without test substances)] × 100 (3)

IC50 [2]	IC50 ([2]; IC50 on in vitro ACE inhibitory assay, purified rabbit lung ACE, HHL substrate, 2 h at 37 °C, mean ± SD (n = 3))	SMILES	Zn (II) chelating activity (percentage of bound Zn (II)) ([1]; at concentration of 4 mg/mL)	Zn (II) chelating activity (percentage of bound Zn (II)) ([1]; at concentration of 5 mg/mL)
52.2 µM		O=C(/C=C/c1ccc(O)c(O)c1)O[C@H](Cc1ccc(O)c(O)c1)C(=O)O [RA, rosmarinic acid]		
79.2 µM		COc1ccc(-c2cc(=O)c3c(OC)c(OC)c(OC)cc3o2)cc1OC [SIN, sinensetin]		6.71% ± 0.62%
77.9 µM		COc1ccc(-c2cc(=O)c3c(OC)c(OC)c(OC)cc3o2)cc1O [TMF, 3′-hydroxy-5,6,7,4′-tetramethoxyflavone]		

The remaining lines, values behind:

SMILES	IC50 [2]	IC50 ([2]; IC50 on in vitro ACE inhibitory assay, purified rabbit lung ACE, HHL substrate, 2 h at 37 °C, mean ± SD (n = 3))	Zn (II) chelating activity (percentage of bound Zn (II)) ([1]; at concentration of 4 mg/mL)	Zn (II) chelating activity (percentage of bound Zn (II)) ([1]; at concentration of 5 mg/mL)
C[C@H](CS)C(=O)N1CCC[C@H]1C(=O)O [Captopril, captopril]			100% ± 1.59%	
COc1ccc(-c2cc(=O)c3c(O)c(OC)c(OC)cc3o2)cc1O [EUP, eupatorin]		44.6 µM and 44.7 µM		56.03% ± 1.26%
